Reference: patent US20160158252A1, “PHARMACEUTICAL COMPOSITION AND USE OF DIETHYL (2-CYANOETHYL)PHOSPHONATE” (Olatec Therapeutics LLC, priority 2013, published 2016)
Where two headings read alike, the source gives them in different places.

Assays:
[1] = tested on: arachidonic acid-induced ear swelling; assay: Arachidonic acid-induced ear swelling in mice (intraperitoneal administration); assay type: in vivo; details: measured at 90 minutes
Procedure: The protocols of this experiment were similar to Example 3, except the following differences. Test substance diethyl (2-cyanoethyl) phosphonate was dissolved in PBS to generate 1, 3 and 10 mg/mL testing solutions. Vehicle (PBS) at 10 mL/kg and diethyl (2-cyanoethyl) phosphonate at 10 mL/kg (10, 30, and 100 mg/kg) were administered intraperitoneally at 1 hour, and again 15 minutes before arachidonic acid (0.5 mg/ear) challenge. The positive control dexamethasone was administered orally 3 hours before arachidonic acid.
An ANOVA was done, and if p<0.05, a Dunnett's t test was employed to calculate significant difference between vehicle control and treated groups. Significance is set at P<0.05 level.
(§1) An ANOVA was done, and if p<0.05, a Dunnett's t test was employed to calculate significant difference between vehicle control and test compound treated groups. A pairwise Student's t test was used to calculate differences between the dexamethasone group and the control group. Significance is set at P<0.05 level.

[2] = tested on: formalin-induced paw licking; assay: Formalin test in mice (oral administration); assay type: in vivo, mice (male CD-1); details: for Licks per min (Between 0-10 min): early phase, vehicle 3.3; for Licks per min (Between 10-40 min): late phase, vehicle 1.4
Procedure: Formalin test is a model of continuous pain resulting from formalin-induced tissue injury. Nociceptive and inflammatory pain was induced by injection of a dilute formalin solution into the paw, resulting in nocifensive behavior including paw flinching. The formalin model encompasses inflammatory, neurogenic, and central mechanism of pain. The early phase of pain (from 0 to about 10 minutes) is due to nociceptive mechanism and the late phase of pain (from 10-40 minutes) is due to a combination of inflammatory pain and nociceptive mechanism. Pain behavior is assessed using manual paw licking measurements. The endpoints of the study are the number of paw licking events. (Hunskaar et al., Pain, 30:103-114, 1987; Li et al., Molecular Pain, 6:11, 2010)
Male CD-1 mice, about 34 g, were used in the study. Mice had free access to food and water, were maintained on a 12 hour:12 hour light/dark schedule for the entire duration of the study, and housed in soft bedding five per cage.
Immediately prior to testing (at time 0), mice were restrained in a cloth and injected with 20 μL of a 5% formalin solution, subcutaneously into the dorsal surface of the left hind paw. Vehicle control (n=10, water) and test compound diethyl (2-cyanoethyl) phosphonate (n=9, in water) were administered by oral gavage with a volume of 10 mL/kg to mice. The amounts of test compound were 10, 30, or 100 mg/kg per dose.
Positive control morphine was administered by subcutaneous injection at 4 mg/kg with a volume of 4 mL/kg to mice (n=10). […] The purpose of morphine is not to serve as a comparison with the test compound.
Morphine was subcutaneously administered once 15 minutes before formalin injection. The test compounds and vehicle control were orally administered twice (BID), at 60 and 15 minutes before formalin injection at time zero.
Following formalin injection, animals were placed in individual cages, and manually observed for 60 minutes. The licking events were recorded in five minute intervals continuously for a total of 60 minutes.
as §1, with “The number of licking events per minute was calculated between 0-10 minutes and 10-40 minutes for vehicle, positive control, and test compound. An” for “An”, “morphine” for “dexamethasone”

[3] = tested on: IL-6, TNFα, IFNγ, MIP-2 and RANTES; assay: Pro-inflammatory cytokine release in rat challenged in vivo with lipopolysaccharide; details: given orally to rat, LPS challenge in vivo
[4] = tested on: tail flick reaction to heat (49° C. water bath); assay: Tail flick test in mice (oral administration); assay type: in vivo
Procedure: Tail flick test is a test of the pain response in animals. Tail flick test is used in basic pain research and to measure the effectiveness of analgesics, by observing the tail flick reaction to heat in an animal. This test assesses the nociceptive response to a local pain stimulus, and the ability of a drug to inhibit this response.
Vehicle control (water) and test compound diethyl (2-cyanoethyl) phosphonate in water were administered by oral gavage to mice with a volume of 10 mL/kg, twice, at 60 and 15 minutes before the first tail flick measurement. The test compound was administered at a dosage of 10, 30, or 100 mg/kg in water. The positive control compound morphine was administered by subcutaneous injection at 8 mg/kg with a volume of 8 mL/kg, at 15 minutes before the first tail flick measurement. Each group had 10 mice.
The response of mice to heat stimulus was evaluated by measuring the time of tail-flick or tail-flick latency from 49° C. water bath. Briefly, the animal was placed in a restrainer with its tail hanging down. Approximately 2 inches of the tail was immersed in a beaker of water at 38±1° C. for about 30 seconds, and this was done twice to acclimate the animal to the procedure.
Subsequently, approximately 2 inches of the tail was immersed in a beaker of water at 49±1° C., at which point a timer was started.
Tail flick measurements were made 60, 80, 100, and 120 minutes post administration of the first dosage of test compound. An ANOVA was done, and if p<0.05, a Dunnett's t test was employed to calculate significant difference between vehicle control and test compound treated groups. A pairwise Student's t test was used to calculate differences between the morphine group and the control group. […] Analysis with p-values <0.05 is considered significant.

[5] = tested on: formalin-induced paw licking; details: for Licks per min (Between 0-10 min) / Licks per min (Between 10-40 min): 375 mM topical BID; for Licks per min (Between 0-10 min): early phase, vehicle 4.4; for Licks per min (Between 10-40 min): late phase, vehicle 1.7
Procedure: The test compound diethyl (2-cyanoethyl) phosphonate (375 mM in vehicle, n=16) and vehicle control (acetone:ethanol 1:1, n=16) were administered topically by submerging the mouse left hind paw in the respective solution for about 30 seconds. The paw was then withdrawn and wiped with tissue to avoid excess dermal drying.
Positive control morphine was administered by subcutaneous injection at 4 mg/kg with a volume of 4 mL/kg to mice (n=16).
Morphine was subcutaneously administered once 15 minutes before formalin injection. The test compounds and vehicle control were topically administered twice (BID), at 90 and 15 minutes before formalin injection.
Following formalin injection, animals were placed in individual cages, and manually observed for 60 minutes. The licking events were recorded in five minute intervals continuously for a total of 40 minutes.
The number of licking events per minute was calculated between 0-10 minutes and 10-40 minutes for vehicle, positive control, and test compound. A two-sample t-test was done to compare the vehicle group with the test compound group. Significance is set at P<0.05 level. The same statistics were done comparing the vehicle group with the positive control group.

[6] = tested on: arachidonic acid-induced ear swelling; assay: Topical arachidonic acid-induced ear swelling model in mice (topical administration); assay type: in vivo, mice (male ICR); details: 90 minutes after arachidonic acid
Procedure: The test compound, indomethacin (positive control), and vehicle (acetone:ethanol/1:1) were evaluated for anti-inflammatory activity in a topical arachidonic acid-induced ear swelling model in mice.
Male ICR mice weighing 22±2 g were used and randomly divided; the test compound and vehicle control had 10 mice, and indomethacin had 5 mice. Arachidonic Acid (0.5 mg in 20 μl of acetone:ethanol/1:1) was applied topically to the anterior and posterior surfaces of the right ear of each mice. Test substances (in vehicle) and vehicle, as listed in Table 3 were similarly applied 30 min before and 15 min after arachidonic acid application. The thickness of the right ear and the left ear was measured and the difference calculated as an indication of the inflammation in the right ear. Ear swelling was measured by a Dyer model micrometer gauge at 60 and 90 minutes after arachidonic acid application as an index of inflammation. Percent inhibition was calculated according to the formula: Ic−It/Ic×100, where Ic and It refers to increase of ear thickness (mm) in control and treated mice, respectively. An ANOVA was done, and if p<0.05, a Dunnett's t test was employed to calculate significant difference between vehicle control and test compound treated groups. A pairwise Student's t test was used to calculate differences between the indomethacin group and the control group. Significance is set at P<0.05 level.

[7] = 100 mg/kg oral BID, listed as test compound

C[C@@H]1C[C@H]2[C@@H]3CCC4=CC(=O)C=C[C@]4(C)[C@@]3(F)[C@@H](O)C[C@]2(C)[C@@]1(O)C(=O)CO [Dexamethasone, dexamethasone, reference compound]
% Inhibition of ear swelling ([1]; 0.3 mg/kg orally 3 hours before arachidonic acid): 29%

CCOP(=O)(CCC#N)OCC [Diethyl (2-cyanoethyl) phosphonate, Diethyl (2-cyanoethyl)phosphonate]
Licking events, difference from control ([2]; 10 mg/kg oral BID): did not show a statically significant difference from control | Licking events, difference from control ([2]; 30 mg/kg oral BID): did not show a statically significant difference from control | Efficacy after 40 minutes (licking events) ([2]; 100 mg/kg oral BID): did not last after 40 minutes | Licks per min (Between 0-10 min) ([2]; 100 mg/kg oral BID): 3.1 licks per min | Licks per min (Between 0-10 min) [2, 7]: no statistically significant difference | Licks per min (Between 10-40 min) ([2]; 100 mg/kg oral BID): 0.59 licks per min | Licks per min (Between 10-40 min) [2, 7]: statistically significant (p<0.05) reduction | Pro-inflammatory cytokine release (IL-6, TNFα, IFNγ, MIP-2 and RANTES) [3]: effective in inhibiting pro-inflammatory cytokine release | % Inhibition of ear swelling ([1]; 10 mg/kg intraperitoneally, twice): −8% | % Inhibition of ear swelling ([1]; 30 mg/kg intraperitoneally, twice): 0% | % Inhibition of ear swelling ([1]; 100 mg/kg intraperitoneally, twice): 34% | % Inhibition of ear swelling ([1]; 100 mg/kg intraperitoneally, twice, listed as tested compound): 37% | Tail flick latency vs vehicle-treated mice ([4]; 30 mg/kg oral, twice, 60, 80, 100, 120 minutes): statistically significant tail flick latency at 60 and 80 minutes | Tail flick latency vs vehicle-treated mice ([4]; 100 mg/kg oral, twice, 60, 80, 100, 120 minutes): statistically significant tail flick latency at 60 and 100 minutes | Licks per min (Between 0-10 min) [5]: 4.0 licks per min | Licks per min (Between 0-10 min) ([5]; listed as test compound): no statistically significant difference | Licks per min (Between 10-40 min) [5]: 1.1 licks per min | Licks per min (Between 10-40 min) ([5]; listed as test compound): statistically significant (p<0.05) reduction | Paw licking events after topical application alone without injection of formalin ([5]; 375 mM topical, no formalin): negligible number of paw licking events | % Inhibition of ear swelling ([6]; 375 mM in acetone:ethanol (1:1), 20 μL (1.4 mg/ear) applied twice topically): 55% | % Inhibition of ear swelling ([6]; 375 mM in acetone:ethanol (1:1), 20 μL (1.4 mg/ear) applied twice topically, listed as active compound): anti-inflammatory | % Inhibition of ear swelling ([6]; 375 mM in acetone:ethanol (1:1), 20 μL (1.4 mg/ear) applied twice topically, listed as tested compound): 55%

COc1ccc2c(c1)c(CC(=O)O)c(C)n2C(=O)c1ccc(Cl)cc1 [Indomethacin, indomethacin, reference compound]
% Inhibition of ear swelling ([6]; 14 mM, 20 μL (0.1 mg/ear) applied twice topically): 58%

CN1CC[C@]23c4c5ccc(O)c4O[C@H]2[C@@H](O)C=C[C@H]3[C@H]1C5 [Morphine, morphine, reference compound]
Efficacy after 40 minutes (licking events) ([2]; mouse, in vivo): did not last after 40 minutes | Tail flick latency vs vehicle-treated mice ([4]; mouse, in vivo): statistically significant tail flick latency at all measured time points
